For one compound, efflux ratio results are on record in PubChem BioAssay AID504745 (National Center for Advancing Translational Sciences (NCATS), 2011).

The series concerns Caco-2 bidirectional permeability, efflux ratio, LC-MS/MS. Description: Inhibitors of N370S glucocerebrosidase as a Potential Chaperone Treatment of Gaucher Disease: Efflux Ratio Profiling. The note with it: hits give low values. An excerpt: Glucocerebrosidase (GC) catalyzes the hydrolysis of beta-glucocerebroside to glucose and ceramide in lysosomes. Mutations in the glucocerebrosidase gene result in Gaucher disease, an autosomal recessive lysosomal storage disorder. Many of the mutations encountered in patients with Gaucher disease are missense alterations that may cause misfolding, decreased stability and/or mistrafficking of this lysosomal protein. […] These inhibitors include iminosugar analogs and three non-iminosugar inhibitors identified from a previous HTS of 62,000 compounds with the wild type recombinant enzyme. After further testing a probe has been identified and was characterized though AMDE tests. This bioassays provides profiling data on Caco-2 cell permeability of leads compounds developed for the HPGD project. This in vitro model is often predictive of in vivo efflux of the compound by measuring the ratio of transport in and out the plasma membrane of the Caco2-cell line. NIH Chemical Genomics Center [NCGC] NIH Molecular Libraries Probe Production Centers Network [MLPCN] MLPCN Grant: MH086442-01 Assay Submitter (PI): Wei Zheng
1. […] The T0, LY and T90, LY plates are read by FlexStation 3 at excitation of 485 nm and emission of 535 nm to determine LY permeability. […]

As for `S=C(NCCCc1cnc[nH]1)NCCCN(Cc1ccc(Cl)c(Cl)c1)c1ccc(Br)cn1`, the efflux ratio is 9.9.
